Results taken from ChEMBL document CHEMBL3885861, “Open TG-GATES”.

Organism: Rattus norvegicus
Assay: Open TG-GATES - Regimen: Daily Repeat
Format: toxicity, organism-based, Sprague-Dawley
Parameters: regimen Daily Repeat, gender Male, age 6 weeks
Settings: in vivo, po, 30 mg/kg, route gavage, dose level Middle; for APTT / Bas / Eos / Fbg / Hb / Ht / Lym / MCHC / MCV / Mono / Neu / PT / Plat / RBC / Ret / WBC: tissue Blood; for KIDNEY_L / KIDNEY_R / KIDNEY_TOTAL: tissue Kidney; for LIVER: tissue Liver; for ALP / ALT / AST / BUN / CRE / Ca / Cl / DBIL / GLC / IP / K / LDH / Na / PL / RALB / TBIL / TC / TG / TP / gamma-GTP: tissue Plasma

## CS(=O)(=O)Nc1ccc([N+](=O)[O-])cc1Oc1ccccc1 [NIMESULIDE]
72 h, time 3 day
  TERMINAL_BW: 222.3 g
  APTT: 17.6 s
  Bas: 0%
  Eos: 1.2%
  Fbg: 211.4 mg/dL
  Hb: 13.8 g/dL
  Ht: 41.1%
  Lym: 68.6%
  MCHC: 33.6%
  MCV: 64 fL
  Mono: 10.6%
  Neu: 19.4%
  PT: 11.3 s
  Plat: 114.9 x10_4/uL
  RBC: 642.4 x10_4/ul
  Ret: 9%
  WBC: 80.8 x10_2/uL
  KIDNEY_L: 1 g
  KIDNEY_R: 1.1 g
  KIDNEY_TOTAL: 2.1 g
  LIVER: 11.4 g
  ALP: 888 IU/L
  ALT: 38 IU/L
  AST: 64.6 IU/L
  BUN: 19.6 mg/dL
  CRE: 0.6 mg/dL
  Ca: 10.7 mg/dL
  Cl: 104 meq/L
  DBIL: 0.054 mg/dL
  GLC: 196.8 mg/dL
  IP: 8.2 mg/dL
  K: 4.5 meq/L
  LDH: 91.4 IU/L
  Na: 140.8 meq/L
  PL: 159.2 mg/dL
  RALB: 4.1 g/dL
  TBIL: 0.4 mg/dL
  TC: 90.8 mg/dL
  TG: 75.6 mg/dL
  TP: 5.7 g/dL
  gamma-GTP: 0.8 IU/L
[…], time 7 day
  TERMINAL_BW: 250.1 g
  APTT: 17.5 s
  Bas: 0%
  Eos: 1.4%
  Fbg: 221.8 mg/dL
  Hb: 14 g/dL
  Ht: 41.4%
  Lym: 78.4%
  MCHC: 33.9%
  MCV: 63.3 fL
  Mono: 6%
  Neu: 14%
  PT: 11.2 s
  Plat: 135 x10_4/uL
  RBC: 655 x10_4/ul
  Ret: 6.6%
  WBC: 109.7 x10_2/uL
  KIDNEY_L: 1.1 g
  KIDNEY_R: 1.1 g
  KIDNEY_TOTAL: 2.2 g
  LIVER: 13 g
  ALP: 823.8 IU/L
  ALT: 36.6 IU/L
  AST: 60.6 IU/L
  BUN: 21.2 mg/dL
  CRE: 0.6 mg/dL
  Ca: 10.6 mg/dL
  Cl: 106 meq/L
  DBIL: 0.018 mg/dL
  GLC: 208.6 mg/dL
  IP: 7.5 mg/dL
  K: 4.5 meq/L
  LDH: 91.2 IU/L
  Na: 141.8 meq/L
  PL: 139.2 mg/dL
  RALB: 4.1 g/dL
  TBIL: 0.4 mg/dL
  TC: 74.2 mg/dL
  TG: 72.2 mg/dL
  TP: 5.9 g/dL
  gamma-GTP: 0.8 IU/L
[…], time 14 day
  TERMINAL_BW: 313 g
  APTT: 16.8 s
  Bas: 0%
  Eos: 1.2%
  Fbg: 227.6 mg/dL
  Hb: 14.2 g/dL
  Ht: 41.4%
  Lym: 76.2%
  MCHC: 34.4%
  MCV: 61.6 fL
  Mono: 6.6%
  Neu: 16.4%
  PT: 11.7 s
  Plat: 126.4 x10_4/uL
  RBC: 672.8 x10_4/ul
  Ret: 6.1%
  WBC: 127 x10_2/uL
  KIDNEY_L: 1.2 g
  KIDNEY_R: 1.3 g
  KIDNEY_TOTAL: 2.5 g
  LIVER: 17 g
  ALP: 888.2 IU/L
  ALT: 33 IU/L
  AST: 66.4 IU/L
  BUN: 23 mg/dL
  CRE: 0.6 mg/dL
  Ca: 10.7 mg/dL
  Cl: 105 meq/L
  DBIL: 0.004 mg/dL
  GLC: 195.4 mg/dL
  IP: 7.2 mg/dL
  K: 4.6 meq/L
  LDH: 82.2 IU/L
  Na: 141 meq/L
  PL: 155.2 mg/dL
  RALB: 4.1 g/dL
  TBIL: 0.4 mg/dL
  TC: 77 mg/dL
  TG: 120 mg/dL
  TP: 6 g/dL
  gamma-GTP: 1 IU/L
[…], time 28 day
  TERMINAL_BW: 399.9 g
  APTT: 18.5 s
  Bas: 0%
  Eos: 1%
  Fbg: 219.2 mg/dL
  Hb: 15.3 g/dL
  Ht: 45%
  Lym: 82.8%
  MCHC: 34.1%
  MCV: 58.1 fL
  Mono: 6%
  Neu: 10.4%
  PT: 11.7 s
  Plat: 112.1 x10_4/uL
  RBC: 775.2 x10_4/ul
  Ret: 2.8%
  WBC: 129 x10_2/uL
  KIDNEY_L: 1.4 g
  KIDNEY_R: 1.4 g
  KIDNEY_TOTAL: 2.8 g
  LIVER: 17.8 g
  ALP: 831.6 IU/L
  ALT: 37.2 IU/L
  AST: 65 IU/L
  BUN: 25.8 mg/dL
  CRE: 0.6 mg/dL
  Ca: 10.5 mg/dL
  Cl: 107.2 meq/L
  DBIL: 0.002 mg/dL
  GLC: 198.4 mg/dL
  IP: 7 mg/dL
  K: 4.6 meq/L
  LDH: 92.6 IU/L
  Na: 144 meq/L
  PL: 169 mg/dL
  RALB: 4.1 g/dL
  TBIL: 0.4 mg/dL
  TC: 80.4 mg/dL
  TG: 159.4 mg/dL
  TP: 6.3 g/dL
  gamma-GTP: 1.4 IU/L
